Several values for one entry are separate records, joined by “and”; a condition that tells them apart may be missing. Equal entries are not always repeated.
Tests used:
Format in all cases: cell-based
[1] = target: T1, human vanilloid receptor-1 (TRPV-1) (Homo sapiens, UniProt Q8NER1); experiment: Calcium Flux Test, inhibition of phenethyl alcohol-induced calcium flux; settings: 10 uM capsazepine; for inhibition at 10 µM: read-out: (column without head; percent inhibition)
T1 construct: host or cells: HEK293
Description: (§1) The Calcium Flux Test is performed in the following manner: Recombinant HEK293 cells expressing human vanilloid receptor-1 (TRPV-1; accession number AF196175, EMD Millipore, Billerica, Mass.) are grown in D-MEM/F-12 media (Life Technologies, Grand Island, N.Y.) supplemented with 10% fetal bovine serum, 1% non essential amino acids and 400 μg/mL Geneticin (Gibco, Life Technologies). Cells are plated at a concentration of 15,000 cells per well on poly-D-lysine-coated 384 well plates and incubated overnight at 5% CO2 and 37° C. After incubation, culture media is removed from the wells and replaced with 50 μL per well of Fluo-8 No Wash dye solution (#36315, AAT Bioquest, Sunnyvale, Calif.). The Fluo-8 dye solution is prepared by mixing 20 uL of Fluo-8 NW with 30 mL of 0.33× Pluronic® F127 Plus (BASF of Ludwigshafen, Germany) in assay buffer (1×HBSS+2% of HEPES). Fluo-8 dye is incubated for 30 minutes at room temperature. Intracellular calcium (Ca^2+) flux is monitored upon exposure to aromatic alcohol in DMSO vehicle by measuring fluorescence intensity at Ex/Em 490/525 on a Functional Drug Screening System (FDSS; Hamamatsu, […]). Measurements are taken every second for a period of 4 minutes. […] Statistical differences are obtained using One Way ANOVA with Tukey Post-hoc test; statistical significance is defined as P≦0.05.
(§2) The Maximum RFU obtained with a given concentration of aromatic alcohol is compared with the Maximum RFU obtained using the same concentration of aromatic alcohol but pretreated with the TRPV-1 antagonist for 5 minutes after dye incubation. Percent inhibition achieved with the TRPV-1 antagonist is calculated as: 100*((Maximum RFU of aromatic alcohol−Maximum RFU of aromatic alcohol pretreated with TRPV-1 antagonist)/Maximum RFU of aromatic alcohol).
Capsazepine was tested for activity as a TRPV-1 antagonist with different concentrations of phenethyl alcohol in DMSO as described in Example 2. […]

[2] = target: T1, human vanilloid receptor-1 (TRPV-1); experiment: Calcium Flux Test, inhibition of phenoxyethanol-induced calcium flux
Description: as §1, §2
(§3) Capsazepine and AMG9810 were tested for activity as TRPV-1 antagonists using the Calcium Flux Test using two different concentrations of phenoxyethanol in DMSO. They were also tested using the Calcium Flux Test in which phenoxyethanol was replaced with capsaicin. […]

[3] = target: T1, human vanilloid receptor-1 (TRPV-1); experiment: Calcium Flux Test, phenoxyethanol replaced with capsaicin (capsaicin-induced calcium flux)
Description: as §1, §2, §3

[4] = target: T1, human vanilloid receptor-1 (TRPV-1); experiment: Calcium Flux Test, inhibition of benzyl alcohol-induced calcium flux; settings: 10 uM capsazepine
Description: as §1, §2
Capsazepine was tested for activity as a TRPV-1 antagonist with different concentrations of benzyl alcohol in DMSO as described in Example 2. […]

[5] = capsazepine 0.6104 nM, phenoxyethanol 2 mM
[6] = capsazepine 0.6104 nM, phenoxyethanol 3 mM
[7] = capsazepine 2 nM, phenoxyethanol 2 mM
[8] = capsazepine 10 nM, phenoxyethanol 2 mM
[9] = capsazepine 10 nM, phenoxyethanol 3 mM
[10] = capsazepine 39 nM, phenoxyethanol 2 mM
[11] = capsazepine 39 nM, phenoxyethanol 3 mM
[12] = capsazepine 156 nM, phenoxyethanol 2 mM
[13] = capsazepine 156 nM, phenoxyethanol 3 mM
[14] = capsazepine 625 nM, phenoxyethanol 2 mM
[15] = capsazepine 625 nM, phenoxyethanol 3 mM
[16] = capsazepine 2500 nM, phenoxyethanol 2 mM
[17] = capsazepine 2500 nM, phenoxyethanol 3 mM
[18] = capsazepine 10000 nM, phenoxyethanol 2 mM
[19] = capsazepine 10000 nM, phenoxyethanol 3 mM
[20] = capsazepine 2 nM, capsaicin 300 nM
[21] = capsazepine 10 nM, capsaicin 100 nM
[22] = capsazepine 10 nM, capsaicin 300 nM
[23] = capsazepine 39 nM, capsaicin 100 nM
[24] = capsazepine 39 nM, capsaicin 300 nM
[25] = capsazepine 156 nM, capsaicin 100 nM
[26] = capsazepine 156 nM, capsaicin 300 nM
[27] = capsazepine 625 nM, capsaicin 100 nM
[28] = capsazepine 625 nM, capsaicin 300 nM
[29] = capsazepine 2500 nM, capsaicin 100 nM
[30] = capsazepine 2500 nM, capsaicin 300 nM
[31] = capsazepine 10000 nM, capsaicin 100 nM
[32] = capsazepine 10000 nM, capsaicin 300 nM

T1 sequence (Q8NER1 whole entry): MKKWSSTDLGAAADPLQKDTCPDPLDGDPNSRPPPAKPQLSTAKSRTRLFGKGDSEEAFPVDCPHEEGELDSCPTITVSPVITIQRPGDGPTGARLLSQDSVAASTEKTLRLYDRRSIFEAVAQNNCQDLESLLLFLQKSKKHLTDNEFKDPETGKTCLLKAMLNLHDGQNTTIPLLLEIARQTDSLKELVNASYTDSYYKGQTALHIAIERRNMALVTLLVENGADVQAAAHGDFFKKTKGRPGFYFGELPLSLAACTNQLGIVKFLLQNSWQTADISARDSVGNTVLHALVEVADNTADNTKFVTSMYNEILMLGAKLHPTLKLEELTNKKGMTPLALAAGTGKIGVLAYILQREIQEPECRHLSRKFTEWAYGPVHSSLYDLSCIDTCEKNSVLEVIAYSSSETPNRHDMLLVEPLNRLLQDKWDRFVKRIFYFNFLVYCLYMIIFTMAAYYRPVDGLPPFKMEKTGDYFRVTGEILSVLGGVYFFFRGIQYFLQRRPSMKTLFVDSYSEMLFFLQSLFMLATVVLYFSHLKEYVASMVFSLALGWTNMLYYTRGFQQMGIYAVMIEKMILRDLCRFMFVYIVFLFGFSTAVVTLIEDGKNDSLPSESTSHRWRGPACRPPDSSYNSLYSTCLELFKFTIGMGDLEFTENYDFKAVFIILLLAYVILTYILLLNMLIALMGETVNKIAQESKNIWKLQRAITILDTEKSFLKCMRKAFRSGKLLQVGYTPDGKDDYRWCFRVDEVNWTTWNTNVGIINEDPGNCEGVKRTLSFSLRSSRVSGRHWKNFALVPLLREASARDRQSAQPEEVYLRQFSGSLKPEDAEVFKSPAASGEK

Maximum RFU ([1]; phenethyl alcohol 0 % w/v): 13.44 RFU and 17.46 ± 0.4 RFU
Maximum RFU ([1]; phenethyl alcohol 0.000002 % w/v): 12.76 RFU and 18.03 ± 3.35 RFU
Maximum RFU ([1]; phenethyl alcohol 0.000006 % w/v): 13.70 RFU and 18 ± 0.75 RFU
Maximum RFU ([1]; phenethyl alcohol 0.000018 % w/v): 13.60 RFU and 18.18 ± 0.59 RFU
Maximum RFU ([1]; phenethyl alcohol 0.00016 % w/v): 11.64 RFU and 19.48 ± 0.51 RFU
Maximum RFU ([1]; phenethyl alcohol 0.00048 % w/v): 11.71 RFU and 20.58 ± 0.6 RFU
Maximum RFU ([1]; phenethyl alcohol 0.0015 % w/v): 11.68 RFU and 18.5 ± 0.5 RFU
inhibition at 10 µM ([1]; phenethyl alcohol 0.0015 % w/v): 54.3%
(column without head; percent inhibition) ([1]; phenethyl alcohol 0.0044 % w/v): 56.15% and 80.22%
Maximum RFU ([1]; phenethyl alcohol 0.0044 % w/v): 11.56 RFU and 15.66 ± 0.4 RFU
(column without head; percent inhibition) ([1]; phenethyl alcohol 0.013 % w/v): 93.84%
inhibition at 10 µM ([1]; phenethyl alcohol 0.013 % w/v): 96.3%
(column without head; percent inhibition) ([1]; phenethyl alcohol 0.04 % w/v): 91.52%
Maximum RFU ([1]; phenethyl alcohol 0.04 % w/v): 26.42 RFU and 39.89 ± 5.81 RFU
inhibition at 10 µM ([1]; phenethyl alcohol 0.04 % w/v): 94%
(column without head; percent inhibition) ([1]; phenethyl alcohol 0.12 % w/v): 37.18%
Maximum RFU ([1]; phenethyl alcohol 0.12 % w/v): 345.95 RFU and 364.66 ± 13.76 RFU
inhibition at 10 µM ([1]; phenethyl alcohol 0.12 % w/v): 42.9%
Maximum RFU (mean ± SD) ([2]; capsazepine 0.1526 nM, phenoxyethanol 2 mM): 319.33 ± 77.43 RFU
Maximum RFU (mean ± SD) ([2]; capsazepine 0.1526 nM, phenoxyethanol 3 mM): 508.45 ± 81.79 RFU
Maximum RFU (mean ± SD) [2, 5]: 210.03 ± 46.34 RFU
inhibition at 0.0006104 µM [2, 5]: 26.8%
Maximum RFU (mean ± SD) [2, 6]: 351.36 ± 32.21 RFU
inhibition at 0.0006104 µM [2, 6]: 20.5%
Maximum RFU (mean ± SD) [2, 7]: 236.10 ± 8.91 RFU
inhibition at 0.002 µM [2, 7]: 17.7%
Maximum RFU (mean ± SD) ([2]; capsazepine 2 nM, phenoxyethanol 3 mM): 486.75 ± 153.02 RFU
Maximum RFU (mean ± SD) [2, 8]: 154.95 ± 19.56 RFU
inhibition at 0.01 µM [2, 8]: 46%
Maximum RFU (mean ± SD) [2, 9]: 340.96 ± 12.96 RFU
inhibition at 0.01 µM [2, 9]: 22.8%
Maximum RFU (mean ± SD) [2, 10]: 75.06 ± 6.64 RFU
inhibition at 0.039 µM [2, 10]: 73.8%
Maximum RFU (mean ± SD) [2, 11]: 176.52 ± 75.37 RFU
inhibition at 0.039 µM [2, 11]: 60%
Maximum RFU (mean ± SD) [2, 12]: 87.54 ± 8.38 RFU
inhibition at 0.156 µM [2, 12]: 69.5%
Maximum RFU (mean ± SD) [2, 13]: 101.59 ± 2.44 RFU
inhibition at 0.156 µM [2, 13]: 77%
Maximum RFU (mean ± SD) [2, 14]: 57.76 ± 2.15 RFU
inhibition at 0.625 µM [2, 14]: 79.9%
Maximum RFU (mean ± SD) [2, 15]: 75.71 ± 3.39 RFU
inhibition at 0.625 µM [2, 15]: 82.9%
Maximum RFU (mean ± SD) [2, 16]: 84.79 ± 2.68 RFU
inhibition at 2.5 µM [2, 16]: 70.5%
Maximum RFU (mean ± SD) [2, 17]: 99.71 ± 6.08 RFU
inhibition at 2.5 µM [2, 17]: 77.4%
Maximum RFU (mean ± SD) [2, 18]: 79.39 ± 2.79 RFU
inhibition at 10 µM [2, 18]: 72.3%
Maximum RFU (mean ± SD) [2, 19]: 106.49 ± 4.15 RFU
inhibition at 10 µM [2, 19]: 75.9%
Maximum RFU (mean ± SD) ([3]; capsazepine 2 nM, capsaicin 100 nM): 665.83 ± 90.25 RFU
Maximum RFU (mean ± SD) [3, 20]: 850.93 ± 28.65 RFU
inhibition at 0.002 µM [3, 20]: 1.16%
Maximum RFU (mean ± SD) [3, 21]: 461.29 ± 221.27 RFU
inhibition at 0.01 µM [3, 21]: 28.7%
Maximum RFU (mean ± SD) [3, 22]: 771.64 ± 25.92 RFU
inhibition at 0.01 µM [3, 22]: 10.4%
Maximum RFU (mean ± SD) [3, 23]: 187.95 ± 177.88 RFU
inhibition at 0.039 µM [3, 23]: 71%
Maximum RFU (mean ± SD) [3, 24]: 557.38 ± 79.48 RFU
inhibition at 0.039 µM [3, 24]: 35.3%
Maximum RFU (mean ± SD) [3, 25]: 29.36 ± 6.46 RFU
inhibition at 0.156 µM [3, 25]: 95.5%
Maximum RFU (mean ± SD) [3, 26]: 51.20 ± 14.34 RFU
inhibition at 0.156 µM [3, 26]: 94%
Maximum RFU (mean ± SD) [3, 27]: 24.39 ± 5.19 RFU
inhibition at 0.625 µM [3, 27]: 96.2%
Maximum RFU (mean ± SD) [3, 28]: 28.36 ± 3.16 RFU
inhibition at 0.625 µM [3, 28]: 96.7%
Maximum RFU (mean ± SD) [3, 29]: 27.61 ± 4.95 RFU
inhibition at 2.5 µM [3, 29]: 95.7%
Maximum RFU (mean ± SD) [3, 30]: 31.08 ± 3.44 RFU
inhibition at 2.5 µM [3, 30]: 96.4%
Maximum RFU (mean ± SD) [3, 31]: 45.31 ± 14.17 RFU
inhibition at 10 µM [3, 31]: 93%
Maximum RFU (mean ± SD) [3, 32]: 58.73 ± 4.40 RFU
inhibition at 10 µM [3, 32]: 93.2%
Maximum RFU ([4]; benzyl alcohol 0 % w/v): 13.30 RFU and 18.24 ± 1.3 RFU
Maximum RFU ([4]; benzyl alcohol 0.00000199 % w/v): 11.32 RFU and 18.74 ± 2.18 RFU
Maximum RFU ([4]; benzyl alcohol 0.00000598 % w/v): 9.46 RFU and 16.77 ± 1.48 RFU
Maximum RFU ([4]; benzyl alcohol 0.0000538 % w/v): 10.90 RFU and 18.44 ± 0.07 RFU
Maximum RFU ([4]; benzyl alcohol 0.001452 % w/v): 11.63 RFU and 15.7 ± 2.1 RFU
% Inhibition ([4]; benzyl alcohol 0.004357 % w/v): 72.51%
Maximum RFU ([4]; benzyl alcohol 0.004357 % w/v): 8.14 RFU and 15.33 ± 1 RFU
inhibition at 10 µM ([4]; benzyl alcohol 0.004357 % w/v): 74.2%
% Inhibition ([4]; benzyl alcohol 0.013072 % w/v): 82.58%
inhibition at 10 µM ([4]; benzyl alcohol 0.013072 % w/v): 88.8%
% Inhibition ([4]; benzyl alcohol 0.04 % w/v): 93.23%
Maximum RFU ([4]; benzyl alcohol 0.04 % w/v): 18.82 RFU and 28.72 ± 1.5 RFU
inhibition at 10 µM ([4]; benzyl alcohol 0.04 % w/v): 95.4%
Maximum RFU ([4]; benzyl alcohol 6.64E−07 % w/v): 11.79 RFU and 18.24 ± 2.53 RFU
Compound: Oc1cc2c(cc1O)CN(C(=S)NCCc1ccc(Cl)cc1)CCC2 [Capsazepine, capsazepine]
